Drawing on patent US10703735B2, “4-phenyl-coumarin derivatives, processes for their preparation and uses thereof for the treatment of cancer” (Lead Discovery Center GmbH, priority 2018, dated 2020), this text covers IC50 for ten molecules.

In assay [1] the target is mitochondrial RNA-polymerase (POLRMT) (Mus musculus, UniProt Q8BKF1). The assay can be described thus: Homogeneous TR-FRET assay for mitochondrial transcription activity. It is filed as biochemical. Particulars: homogeneous TR-FRET assay according to Example 4; read-out: mitochondrial transcription activity (IC-50). The gist of the method: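 Mouse POLRMT with TFAM and TFB2M transcribes linearized pUC-LSP template after 10 min compound preincubation (10 μM final or dilution series), started with 500 μM each nucleotide, 2 h at RT. EDTA/high-salt stop; RNA product detected by hybridized Eu/ATTO647N probe pair, TR-FRET read at 665 nm (340 nm excitation).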

Assay [2] concerns mitochondrial transcription (7S RNA) in HeLa cells. The experiment in a line: Quantitative real time-PCR assay of inhibition of mitochondrial transcription (7S RNA) in HeLa cells. The assay is classed as cell-based. Particulars: Homo sapiens, 4 h incubation, Example 5, read-out: cellular qPCR assay IMT (IC-50). As for the experimental part: Quantitative real-time PCR (qRT-PCR), based on the TaqMan™ (Thermo Fisher Scientific, Waltham Mass.) technology, was carried out essentially as described in (Heid et al. 1996). HeLa cells were plated one day before compound treatment in RPMI medium supplemented with 10% Fetal Calf Serum and 2 mM L-glutamine. Cells were incubated with dilution series of compounds or vehicle (DMSO) for 4 h, prior to harvest and extraction of the RNA using the RNeasy Mini Kit (Qiagen, Hilden D), according to the manufacturer's instructions. RNA concentrations were measured spectroscopically, using a NanoDrop-2000 (Thermo Fisher Scientific, Waltham Mass.) and normalized prior to cDNA synthesis, using a ‘High-Capacity cDNA Reverse Transcription Kit’ (Thermo Fisher Scientific, Waltham Mass.). qRT-PCR was carried out using the ‘TaqMan Fast Advance Master Mix’ (Thermo Fisher Scientific, Waltham Mass.) on a 7500 Fast Real-Time PCR machine (Applied Biosystems, Foster City Calif.)
For these measurements, three genes were used to compare the effect of the scrutinized compounds in relation to their concentration. The POLRMT-gene was used to detect potential influences on nuclear transcription. Mitochondrial transcription in vivo was monitored by measurements 7S RNA. The TBP (TATA-box binding protein) gene was employed as the control (housekeeping gene) during qRT-PCR. The short-lived mitochondrial 7S RNA, which is not post-transcriptionally stabilized, allowed us to monitor rapid changes in mitochondrial transcription activity following compound addition. Biological triplicates were analyzed using the comparative CT Method (ΔΔCt) method (Bubner et al. 2004) and reported as Rq % values (Rq=Relative quantification=2-ΔΔCt).

Chain of mitochondrial RNA-polymerase (POLRMT) (Q8BKF1 42-1207): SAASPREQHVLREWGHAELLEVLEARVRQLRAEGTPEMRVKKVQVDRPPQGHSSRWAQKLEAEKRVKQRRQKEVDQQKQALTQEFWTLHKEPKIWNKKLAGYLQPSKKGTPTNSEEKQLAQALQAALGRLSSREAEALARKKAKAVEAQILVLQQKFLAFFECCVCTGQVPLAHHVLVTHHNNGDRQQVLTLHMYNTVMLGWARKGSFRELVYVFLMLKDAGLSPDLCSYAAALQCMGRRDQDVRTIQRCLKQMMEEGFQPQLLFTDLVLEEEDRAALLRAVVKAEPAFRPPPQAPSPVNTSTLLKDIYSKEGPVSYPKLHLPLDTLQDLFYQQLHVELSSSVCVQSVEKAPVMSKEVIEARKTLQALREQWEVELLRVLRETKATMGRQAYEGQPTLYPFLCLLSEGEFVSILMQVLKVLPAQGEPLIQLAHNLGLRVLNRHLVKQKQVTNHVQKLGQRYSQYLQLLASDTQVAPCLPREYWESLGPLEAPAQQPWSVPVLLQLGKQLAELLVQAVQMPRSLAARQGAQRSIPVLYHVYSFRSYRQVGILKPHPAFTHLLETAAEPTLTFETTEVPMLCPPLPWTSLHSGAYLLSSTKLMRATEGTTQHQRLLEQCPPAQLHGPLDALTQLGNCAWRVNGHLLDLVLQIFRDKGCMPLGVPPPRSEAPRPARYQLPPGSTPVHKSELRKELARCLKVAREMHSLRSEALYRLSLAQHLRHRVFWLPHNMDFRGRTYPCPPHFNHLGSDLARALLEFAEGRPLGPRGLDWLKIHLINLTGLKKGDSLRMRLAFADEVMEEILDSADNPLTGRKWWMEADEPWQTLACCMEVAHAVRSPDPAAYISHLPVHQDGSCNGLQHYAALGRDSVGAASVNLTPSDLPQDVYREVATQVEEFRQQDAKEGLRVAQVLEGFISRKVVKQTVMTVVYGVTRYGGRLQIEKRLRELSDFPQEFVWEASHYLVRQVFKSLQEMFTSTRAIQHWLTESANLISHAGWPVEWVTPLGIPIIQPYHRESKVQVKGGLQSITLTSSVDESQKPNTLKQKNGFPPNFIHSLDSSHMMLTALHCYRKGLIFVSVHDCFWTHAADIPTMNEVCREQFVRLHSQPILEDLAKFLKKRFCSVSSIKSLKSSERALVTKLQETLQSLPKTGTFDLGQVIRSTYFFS

`COC(=O)C1CCCN(C(=O)C(C)Oc2ccc3c(-c4ccccc4)cc(=O)oc3c2)C1` (centres unmarked) [Compound 15, methyl 1-[2-(2-oxo-4-phenyl-chromen-7-yl)oxypropanoyl]piperidine-3-carboxylate]: the IC50 in assay [1] lay in the range of 100 to 1000 nM; in assay [2] it was 50 to 500 nM.

Consider `CC(Oc1ccc2c(-c3ccccc3)cc(=O)oc2c1)C(=O)N1CCCC(C#N)C1` (centres unmarked) [Compound 19, 1-[2-(2-oxo-4-phenyl-chromen-7-yl)oxypropanoyl]piperidine-3-carbonitrile], for which the results for the IC50 in assay [1] and in assay [2] were < 20 nM and < 10 nM, respectively.

For the molecule `CCNC(=O)C(C)Oc1ccc2c(-c3ccccc3)cc(=O)oc2c1` (centres unmarked) [Compound 30, N-ethyl-2-(2-oxo-4-phenyl-chromen-7-yl)oxy-propanamide], the values for the IC50 in assay [1] and in assay [2] were 1000 to 10000 nM and 50 to 500 nM, respectively.

For `CC(Oc1ccc2c(-c3ccccc3)cc(=O)oc2c1)C(=O)N1CCCC1` (centres unmarked) [Compound 31, 7-(1-methyl-2-oxo-2-pyrrolidin-1-yl-ethoxy)-4-phenyl-chromen-2-one], the IC50 in assay [1] is 100 to 1000 nM; in assay [2], 50 to 500 nM.

For the molecule `CCOC(=O)C(C)(C)Oc1ccc2c(-c3ccccc3)cc(=O)oc2c1` [Compound 32, ethyl 2-methyl-2-(2-oxo-4-phenyl-chromen-7-yl)oxy-propanoate], the IC50 fell in the range of 100 to 1000 nM in assay [1] and 10 to 50 nM in assay [2].

Take `CCOC(=O)[C@@H](C)Oc1ccc2c(-c3ccccc3)cc(=O)oc2c1` [Compound 33, ethyl (2R)-2-(2-oxo-4-phenyl-chromen-7-yl)oxypropanoate]: the IC50 is 100 to 1000 nM in assay [1] and < 10 nM in assay [2].

For `C[C@@H](Oc1ccc2c(-c3ccccc3)cc(=O)oc2c1)C(=O)N(C)C` [Compound 34, (2R)-N,N-dimethyl-2-(2-oxo-4-phenyl-chromen-7-yl)oxy-propanamide], the IC50 in assay [1] was in the range of 100 to 1000 nM; in assay [2], 10 to 50 nM.

Turning to `CCOC(=O)C(C)Oc1ccc2c(-c3ccccc3)cc(=O)oc2c1` (centres unmarked) [Compound 52, ethyl 2-(2-oxo-4-phenyl-chromen-7-yl)oxypropanoate], the IC50 in assay [1] was 100 to 1000 nM; in assay [2], 50 to 500 nM.

For the molecule `CC(C)OC(=O)C(C)Oc1ccc2c(-c3ccccc3)cc(=O)oc2c1` (centres unmarked) [Compound 53, isopropyl 2-(2-oxo-4-phenyl-chromen-7-yl)oxypropanoate], the results for the IC50 in assay [1] and in assay [2] were 20 to 100 nM and < 10 nM, respectively.

`CCOC(=O)C(C)Oc1ccc2c(-c3ccc(OC)cc3)cc(=O)oc2c1` (centres unmarked) [Compound 65, ethyl 2-[4-(4-methoxyphenyl)-2-oxo-chromen-7-yl]oxypropanoate]: the IC50 fell in the range of 1000 to 10000 nM in assay [1] and 500 to 10000 nM in assay [2].
